# Test results as given in PMC5814754, “Quantitative, Wide-Spectrum Kinase Profiling in Live Cells for Assessing the Effect of Cellular ATP on Target Engagement” (Cell Chemical Biology, 2018).
# How the values were obtained:
# Test in all cases: NanoBRET single-dose fractional occupancy profiling of kinase/Nluc library in live HEK293 cells (Table S1)
# Type in all cases: binding
# Set-up in all cases: receptor occupancy: dose or concentration left out as unconfirmed; Occupancy, % Replicate 1 / Occupancy, % Replicate 2: unit of the concentration uncertain
# [1] = biological target: 178 full-length kinases (Homo sapiens, UniProt P54646); conditions: PRKAA2, Nluc N, probe 5 at 0.5 (unit uncertain)
# [2] = biological target: 178 full-length kinases (Homo sapiens, UniProt Q99640); conditions: PKMYT1, Nluc C, probe 2 at 1 (unit uncertain)
# [3] = biological target: 178 full-length kinases (Homo sapiens, UniProt Q02156); conditions: PRKCE, Nluc C, probe 5 at 1 (unit uncertain)
# [4] = biological target: 178 full-length kinases (Homo sapiens, UniProt O95835); conditions: LATS1, Nluc C, probe 5 at 0.5 (unit uncertain)
# [5] = biological target: 178 full-length kinases (Homo sapiens, UniProt P31751); conditions: AKT2, Nluc C, probe 5 at 1 (unit uncertain)
# [6] = biological target: 178 full-length kinases (Homo sapiens, UniProt Q96L34); conditions: MARK4, Nluc N, probe 5 at 1 (unit uncertain)
# [7] = biological target: 178 full-length kinases (Homo sapiens, UniProt P09769); conditions: FGR, Nluc N, probe 6 at 0.5 (unit uncertain)
# [8] = biological target: 178 full-length kinases (Homo sapiens, UniProt Q9P286); conditions: PAK7, Nluc C, probe 5 at 1 (unit uncertain)
# [9] = biological target: 178 full-length kinases (Homo sapiens, UniProt Q9BVS4); conditions: RIOK2, Nluc N, probe 5 at 1 (unit uncertain)
# [10] = biological target: 178 full-length kinases (Homo sapiens, UniProt Q14680); conditions: MELK, Nluc N, probe 5 at 1 (unit uncertain)
# [11] = biological target: 178 full-length kinases (Homo sapiens, UniProt Q12866); conditions: MERTK, Nluc C; read-out: Occupancy, % Replicate 2
# [12] = biological target: 178 full-length kinases (Homo sapiens, UniProt P52333); conditions: JAK3, Nluc C, probe 5 at 1 (unit uncertain)
# [13] = biological target: 178 full-length kinases (Homo sapiens, UniProt Q9H0K1); conditions: SNF1LK2 (NP_056006), Nluc orientation N, probe 6 at 0.1 (unit uncertain)
# [14] = biological target: 178 full-length kinases (Homo sapiens, UniProt P11309); conditions: PIM1, Nluc C, probe 5 at 1 (unit uncertain)
# [15] = biological target: 178 full-length kinases (Homo sapiens, UniProt P50750); conditions: CDK9, Nluc N, probe 1 at 0.5 (unit uncertain)
# [16] = biological target: 178 full-length kinases (Homo sapiens, UniProt P10721); conditions: KIT, Nluc C, probe 6 at 0.1 (unit uncertain)
# [17] = biological target: 178 full-length kinases (Homo sapiens, UniProt Q8NG66); conditions: NEK11, Nluc N, probe 5 at 1 (unit uncertain)
# [18] = biological target: 178 full-length kinases (Homo sapiens, UniProt P31749); conditions: AKT1, Nluc C, probe 5 at 1 (unit uncertain)
# [19] = biological target: 178 full-length kinases (Homo sapiens, UniProt P19784); conditions: CSNK2A2, Nluc C, probe 5 at 1 (unit uncertain)
# Sequence of 178 full-length kinases (Homo sapiens, UniProt P19784) (P19784 whole entry): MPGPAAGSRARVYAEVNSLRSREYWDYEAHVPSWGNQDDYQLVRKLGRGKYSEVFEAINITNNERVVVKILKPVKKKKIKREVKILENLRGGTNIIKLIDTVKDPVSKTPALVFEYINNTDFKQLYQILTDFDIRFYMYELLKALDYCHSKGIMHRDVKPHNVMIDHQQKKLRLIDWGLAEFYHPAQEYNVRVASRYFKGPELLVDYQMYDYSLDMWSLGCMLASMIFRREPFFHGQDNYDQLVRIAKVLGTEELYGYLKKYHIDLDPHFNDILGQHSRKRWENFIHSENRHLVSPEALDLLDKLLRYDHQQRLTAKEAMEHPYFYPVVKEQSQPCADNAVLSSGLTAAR
# Sequence of 178 full-length kinases (Homo sapiens, UniProt P54646) (P54646 whole entry): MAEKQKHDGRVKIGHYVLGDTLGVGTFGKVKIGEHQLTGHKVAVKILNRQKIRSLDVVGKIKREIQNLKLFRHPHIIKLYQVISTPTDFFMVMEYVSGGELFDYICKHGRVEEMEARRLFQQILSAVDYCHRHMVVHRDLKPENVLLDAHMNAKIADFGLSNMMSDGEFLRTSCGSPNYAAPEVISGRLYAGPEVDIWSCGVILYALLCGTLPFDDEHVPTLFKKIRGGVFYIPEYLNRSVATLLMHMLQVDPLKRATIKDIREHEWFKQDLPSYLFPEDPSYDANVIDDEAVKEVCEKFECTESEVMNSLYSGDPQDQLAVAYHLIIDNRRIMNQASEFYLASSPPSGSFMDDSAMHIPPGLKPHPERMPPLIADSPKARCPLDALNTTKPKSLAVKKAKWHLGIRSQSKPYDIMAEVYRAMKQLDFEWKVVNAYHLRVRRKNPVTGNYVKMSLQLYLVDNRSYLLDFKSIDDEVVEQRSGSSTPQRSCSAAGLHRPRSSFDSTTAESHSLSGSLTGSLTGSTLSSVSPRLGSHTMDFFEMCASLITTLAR
# Sequence of 178 full-length kinases (Homo sapiens, UniProt Q9BVS4) (Q9BVS4 whole entry): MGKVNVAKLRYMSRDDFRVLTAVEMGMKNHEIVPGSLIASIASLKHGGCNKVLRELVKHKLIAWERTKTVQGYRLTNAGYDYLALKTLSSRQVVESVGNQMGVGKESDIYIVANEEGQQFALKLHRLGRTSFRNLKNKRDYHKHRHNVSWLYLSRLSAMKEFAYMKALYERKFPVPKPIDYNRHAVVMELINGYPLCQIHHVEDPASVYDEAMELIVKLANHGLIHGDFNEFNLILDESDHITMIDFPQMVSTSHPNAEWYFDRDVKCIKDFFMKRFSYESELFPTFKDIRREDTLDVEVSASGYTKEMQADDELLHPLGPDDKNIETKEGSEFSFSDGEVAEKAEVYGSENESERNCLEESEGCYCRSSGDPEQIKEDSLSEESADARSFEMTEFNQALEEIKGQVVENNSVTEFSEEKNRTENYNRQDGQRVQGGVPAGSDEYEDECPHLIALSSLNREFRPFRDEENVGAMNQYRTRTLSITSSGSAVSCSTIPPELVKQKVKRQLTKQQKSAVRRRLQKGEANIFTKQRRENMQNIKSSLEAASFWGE
# Sequence of 178 full-length kinases (Homo sapiens, UniProt P10721) (P10721 26-976): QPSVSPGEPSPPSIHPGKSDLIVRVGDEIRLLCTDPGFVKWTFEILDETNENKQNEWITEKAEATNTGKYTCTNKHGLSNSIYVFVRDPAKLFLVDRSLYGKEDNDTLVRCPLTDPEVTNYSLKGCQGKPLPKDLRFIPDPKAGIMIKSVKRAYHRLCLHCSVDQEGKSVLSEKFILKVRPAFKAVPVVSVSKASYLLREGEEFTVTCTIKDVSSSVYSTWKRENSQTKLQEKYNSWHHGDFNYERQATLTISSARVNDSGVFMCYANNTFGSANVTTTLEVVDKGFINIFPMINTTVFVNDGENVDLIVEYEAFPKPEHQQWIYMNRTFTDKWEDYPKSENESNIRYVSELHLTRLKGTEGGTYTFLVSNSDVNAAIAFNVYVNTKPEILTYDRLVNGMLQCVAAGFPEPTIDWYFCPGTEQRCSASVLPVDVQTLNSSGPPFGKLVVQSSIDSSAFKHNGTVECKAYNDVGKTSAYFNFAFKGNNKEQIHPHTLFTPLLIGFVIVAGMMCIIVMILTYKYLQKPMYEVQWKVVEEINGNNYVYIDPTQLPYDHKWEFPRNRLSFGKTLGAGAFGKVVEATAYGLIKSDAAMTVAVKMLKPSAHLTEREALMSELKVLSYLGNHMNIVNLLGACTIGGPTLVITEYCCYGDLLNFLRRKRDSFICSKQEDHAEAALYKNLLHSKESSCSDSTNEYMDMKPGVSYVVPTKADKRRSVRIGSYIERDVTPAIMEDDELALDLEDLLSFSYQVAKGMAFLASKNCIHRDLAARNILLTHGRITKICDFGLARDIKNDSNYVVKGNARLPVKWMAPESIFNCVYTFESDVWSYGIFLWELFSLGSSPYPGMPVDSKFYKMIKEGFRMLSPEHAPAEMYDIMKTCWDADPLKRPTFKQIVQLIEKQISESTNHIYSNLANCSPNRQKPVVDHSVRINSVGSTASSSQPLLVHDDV
# Sequence of 178 full-length kinases (Homo sapiens, UniProt Q02156) (Q02156 whole entry): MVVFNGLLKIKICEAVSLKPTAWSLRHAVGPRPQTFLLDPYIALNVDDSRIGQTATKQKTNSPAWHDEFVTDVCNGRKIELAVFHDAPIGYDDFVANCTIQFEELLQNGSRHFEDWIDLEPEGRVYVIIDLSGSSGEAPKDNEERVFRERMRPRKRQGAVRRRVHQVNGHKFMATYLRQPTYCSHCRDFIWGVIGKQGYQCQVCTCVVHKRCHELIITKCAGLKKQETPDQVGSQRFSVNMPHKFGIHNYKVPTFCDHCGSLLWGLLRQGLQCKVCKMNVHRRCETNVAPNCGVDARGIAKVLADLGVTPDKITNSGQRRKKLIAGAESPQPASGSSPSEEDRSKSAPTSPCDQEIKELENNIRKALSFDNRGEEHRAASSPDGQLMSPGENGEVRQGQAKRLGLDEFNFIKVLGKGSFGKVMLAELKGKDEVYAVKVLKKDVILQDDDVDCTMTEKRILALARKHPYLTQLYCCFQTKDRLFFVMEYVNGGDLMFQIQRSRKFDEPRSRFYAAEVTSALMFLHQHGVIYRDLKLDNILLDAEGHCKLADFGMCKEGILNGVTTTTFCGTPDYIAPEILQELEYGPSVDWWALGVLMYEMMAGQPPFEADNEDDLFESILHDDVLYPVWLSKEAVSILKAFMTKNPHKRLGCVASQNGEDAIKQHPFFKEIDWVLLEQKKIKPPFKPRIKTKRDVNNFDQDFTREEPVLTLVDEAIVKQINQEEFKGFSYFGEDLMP
# Sequence of 178 full-length kinases (Homo sapiens, UniProt Q9H0K1) (Q9H0K1 whole entry): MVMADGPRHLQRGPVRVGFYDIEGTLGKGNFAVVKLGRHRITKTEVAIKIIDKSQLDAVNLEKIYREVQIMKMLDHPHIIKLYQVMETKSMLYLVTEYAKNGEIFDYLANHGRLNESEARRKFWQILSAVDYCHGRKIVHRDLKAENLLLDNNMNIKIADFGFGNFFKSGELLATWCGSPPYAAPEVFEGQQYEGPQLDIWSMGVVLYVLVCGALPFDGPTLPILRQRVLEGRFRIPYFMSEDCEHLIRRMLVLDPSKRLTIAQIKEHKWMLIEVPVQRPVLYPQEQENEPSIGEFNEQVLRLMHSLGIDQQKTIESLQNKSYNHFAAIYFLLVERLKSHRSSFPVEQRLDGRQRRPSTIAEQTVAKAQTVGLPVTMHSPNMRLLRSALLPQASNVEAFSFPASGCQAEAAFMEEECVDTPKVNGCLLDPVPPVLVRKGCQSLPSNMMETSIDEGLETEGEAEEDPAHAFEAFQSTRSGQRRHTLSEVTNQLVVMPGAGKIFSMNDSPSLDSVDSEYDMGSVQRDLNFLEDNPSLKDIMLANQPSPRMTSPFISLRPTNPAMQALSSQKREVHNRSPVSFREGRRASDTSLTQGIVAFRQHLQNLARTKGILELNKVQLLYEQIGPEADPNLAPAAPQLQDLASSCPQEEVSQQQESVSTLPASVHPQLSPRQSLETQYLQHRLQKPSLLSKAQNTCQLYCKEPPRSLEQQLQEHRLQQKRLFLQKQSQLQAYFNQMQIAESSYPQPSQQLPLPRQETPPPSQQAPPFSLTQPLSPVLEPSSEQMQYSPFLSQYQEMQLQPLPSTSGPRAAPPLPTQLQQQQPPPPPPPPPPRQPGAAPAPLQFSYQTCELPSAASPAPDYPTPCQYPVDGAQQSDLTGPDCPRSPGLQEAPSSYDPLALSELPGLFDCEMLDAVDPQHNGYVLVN
# Sequence of 178 full-length kinases (Homo sapiens, UniProt P31751) (P31751 whole entry): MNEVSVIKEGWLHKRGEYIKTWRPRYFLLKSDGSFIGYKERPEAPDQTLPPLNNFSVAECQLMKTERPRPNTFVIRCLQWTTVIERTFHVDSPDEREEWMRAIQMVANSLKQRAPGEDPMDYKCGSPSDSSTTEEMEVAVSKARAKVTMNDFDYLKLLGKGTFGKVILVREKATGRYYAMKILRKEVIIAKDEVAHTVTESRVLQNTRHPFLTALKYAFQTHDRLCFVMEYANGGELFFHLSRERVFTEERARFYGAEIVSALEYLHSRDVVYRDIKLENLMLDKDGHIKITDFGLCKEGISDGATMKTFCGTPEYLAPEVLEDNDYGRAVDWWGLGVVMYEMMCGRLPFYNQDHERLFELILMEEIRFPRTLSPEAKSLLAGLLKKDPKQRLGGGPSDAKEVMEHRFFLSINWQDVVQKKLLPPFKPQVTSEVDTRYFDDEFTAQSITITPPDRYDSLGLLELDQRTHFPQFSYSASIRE
# Sequence of 178 full-length kinases (Homo sapiens, UniProt P31749) (P31749 whole entry): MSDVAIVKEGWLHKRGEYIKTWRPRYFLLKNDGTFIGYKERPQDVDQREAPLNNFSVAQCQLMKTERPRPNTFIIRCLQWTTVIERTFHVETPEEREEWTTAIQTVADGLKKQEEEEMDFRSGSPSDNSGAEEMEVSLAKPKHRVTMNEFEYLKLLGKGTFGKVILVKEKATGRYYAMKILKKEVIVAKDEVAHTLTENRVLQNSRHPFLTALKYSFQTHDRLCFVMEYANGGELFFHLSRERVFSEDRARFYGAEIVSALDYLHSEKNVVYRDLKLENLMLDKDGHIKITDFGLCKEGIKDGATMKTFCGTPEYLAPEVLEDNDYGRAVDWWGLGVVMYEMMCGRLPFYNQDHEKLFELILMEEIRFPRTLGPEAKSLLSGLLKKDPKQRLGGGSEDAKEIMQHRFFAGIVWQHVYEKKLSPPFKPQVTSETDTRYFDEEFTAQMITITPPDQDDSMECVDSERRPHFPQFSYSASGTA
compound,measurement,setting,value
C[C@@H](Oc1cc(-c2cnn(C3CCNCC3)c2)cnc1N)c1c(Cl)ccc(F)c1Cl [Crizotinib],"Occupancy, % Replicate 1",[1],No Binding
same,"Occupancy, % Replicate 2",[1],No Binding
same,"Occupancy, % Replicate 1",[2],No Binding
same,"Occupancy, % Replicate 1",[3],No Binding
same,"Occupancy, % Replicate 2",[3],No Binding
same,"Occupancy, % Replicate 1",[4],No Binding
same,"Occupancy, % Replicate 1",[5],No Binding
same,"Occupancy, % Replicate 2",[5],No Binding
same,"Occupancy, % Replicate 1",[6],No Binding
same,"Occupancy, % Replicate 2",[6],No Binding
same,"Occupancy, % Replicate 2",[7],No Binding
same,"Occupancy, % Replicate 1",[8],No Binding
same,"Occupancy, % Replicate 2",[8],No Binding
same,"Occupancy, % Replicate 1",[9],No Binding
same,"Occupancy, % Replicate 2",[9],No Binding
same,"Occupancy, % Replicate 2",[10],No Binding
same,receptor occupancy,[11],81%
same,"Occupancy, % Replicate 2",[12],No Binding
same,"Occupancy, % Replicate 1",[13]; replicate 1,No Binding
same,"Occupancy, % Replicate 2",[13]; replicate 2,No Binding
same,"Occupancy, % Replicate 1",[14],No Binding
same,"Occupancy, % Replicate 1",[15],No Binding
same,"Occupancy, % Replicate 2",[15],No Binding
same,"Occupancy, % Replicate 1",[16],No Binding
same,"Occupancy, % Replicate 2",[16],No Binding
same,"Occupancy, % Replicate 2",[17],No Binding
same,"Occupancy, % Replicate 1",[18],No Binding
same,"Occupancy, % Replicate 2",[18],No Binding
same,"Occupancy, % Replicate 1",[19],No Binding
same,"Occupancy, % Replicate 2",[19],No Binding
